Results reported in patent US11306078B2, “Piperidine CXCR7 receptor modulators” (IDORSIA PHARMACEUTICALS LTD., priority 2016, dated 2022).

What follows are molecules tested against human chemokine receptor CXCR7 (Homo sapiens (Human), UniProt P25106) (assay: Tango CXCR7-bla U2OS beta-arrestin recruitment assay (beta-lactamase reporter, FRET), antagonism of CXCL12/SDF1-α). Details: antagonistic effect on CXCR7; Tango CXCR7-bla U2OS cells, CXCL12/SDF1-α at its EC80.
Format: cell-based
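Further: compounds preincubated 15 min before CXCL12 addition, then 22 h at 37 °C, FRET emission ratio read with CCF4-AM substrate after 2 h.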

human chemokine receptor CXCR7, sequence (P25106 whole entry): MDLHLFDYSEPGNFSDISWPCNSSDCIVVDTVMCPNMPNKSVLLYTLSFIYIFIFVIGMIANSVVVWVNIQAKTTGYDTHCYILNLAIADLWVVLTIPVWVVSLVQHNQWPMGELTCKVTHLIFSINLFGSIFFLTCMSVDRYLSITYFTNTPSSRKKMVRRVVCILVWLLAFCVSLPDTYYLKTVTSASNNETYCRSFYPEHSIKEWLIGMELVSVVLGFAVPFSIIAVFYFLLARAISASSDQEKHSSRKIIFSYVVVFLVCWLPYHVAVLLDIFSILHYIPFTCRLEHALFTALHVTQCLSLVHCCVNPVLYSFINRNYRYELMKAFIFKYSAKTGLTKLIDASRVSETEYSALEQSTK

IC50 [µM]	Compound
0.566	COCC(C)(C)NC(=O)[C@@H]1CN(C2CCCCC2)CC[C@H]1NC(=O)c1cc(-c2ccc(F)cc2F)no1 (racemic) [Example 1.115, rac-(3R*,4R*)-1-Cyclohexyl-4-{[3-(2,4-difluoro-phenyl)-isoxazole-5-carbonyl]-amino}-piperidine-3-carboxylic acid (2-methoxy-1,1-dimethyl-ethyl)-amide]
0.614	COCC(C)(C)NC(=O)[C@@H]1CN(C2CCCC2)CC[C@H]1NC(=O)c1cc(-c2ccc(F)cc2F)no1 (racemic) [Example 1.116, rac-(3R*,4R*)-1-Cyclopentyl-4-{[3-(2,4-difluoro-phenyl)-isoxazole-5-carbonyl]-amino}-piperidine-3-carboxylic acid (2-methoxy-1,1-dimethyl-ethyl)-amide]
0.004	C[C@@H](NC(=O)[C@@H]1CN(C2CCCCC2)CC[C@H]1NC(=O)c1cc(-c2c(F)cc(F)cc2F)on1)c1ccccn1 (racemic) [Example 1.121, (3R*,4R*)-1-Cyclohexyl-4-{[5-(2,4,6-trifluoro-phenyl)-isoxazole-3-carbonyl]-amino}-piperidine-3-carboxylic acid ((R)-1-pyridin-2-yl-ethyl)-amide]
0.105	C[C@@H](NC(=O)[C@@H]1CN(C2CCCCC2)CC[C@H]1NC(=O)c1cc(-c2c(F)cc(F)cc2F)on1)c1cnccn1 (racemic) [Example 1.129, (3R*,4R*)-1-Cyclohexyl-4-{[5-(2,4,6-trifluoro-phenyl)-isoxazole-3-carbonyl]-amino}-piperidine-3-carboxylic acid ((R)-1-pyrazin-2-yl-ethyl)-amide]
0.816	C[C@@H](NC(=O)[C@@H]1CN(C2CCCC2)CC[C@H]1NC(=O)c1cc(-c2c(F)cc(F)cc2F)on1)C1CCC1 (racemic) [Example 1.138, (3R*,4R*)-1-Cyclopentyl-4-{[5-(2,4,6-trifluoro-phenyl)-isoxazole-3-carbonyl]-amino}-piperidine-3-carboxylic acid ((R)-1-cyclobutyl-ethyl)-amide]
0.472	O=C(N[C@@H]1CCN(C2CCCCC2)C[C@H]1C(=O)NC1(c2ccc(F)cn2)CC1)c1cn(-c2ccc(F)cc2F)nn1 (racemic) [Example 1.142, rac-(3R*,4R*)-1-Cyclohexyl-4-{[1-(2,4-difluoro-phenyl)-1H-[1,2,3]triazole-4-carbonyl]-amino}-piperidine-3-carboxylic acid [1-(5-fluoro-pyridin-2-yl)-cyclopropyl]-amide]
0.719	O=C(N[C@@H]1CCN(C2CCCCC2)C[C@H]1C(=O)NC1(c2ccc(F)cn2)CC1)c1cc(-c2c(F)cc(F)cc2F)on1 (racemic) [Example 1.143, rac-(3R*,4R*)-1-Cyclohexyl-4-{[5-(2,4,6-trifluoro-phenyl)-isoxazole-3-carbonyl]-amino}-piperidine-3-carboxylic acid [1-(5-fluoro-pyridin-2-yl)-cyclopropyl]-amide]
0.178	O=C(N[C@@H]1CCN(CC2CC2)C[C@H]1C(=O)NC1(c2ccc(F)cn2)CC1)c1cc(-c2c(F)cc(F)cc2F)on1 (racemic) [Example 1.144, rac-(3R*,4R*)-1-Cyclopropylmethyl-4-{[5-(2,4,6-trifluoro-phenyl)-isoxazole-3-carbonyl]-amino}-piperidine-3-carboxylic acid [1-(5-fluoro-pyridin-2-yl)-cyclopropyl]-amide]
0.276	CN(C)C(=O)[C@@H]1CN(CC2CC2)CC[C@H]1NC(=O)c1cc(-c2ccc(F)cc2F)no1 (racemic) [Example 1.149, rac-(3R*,4R*)-1-Cyclopropylmethyl-4-{[3-(2,4-difluoro-phenyl)-isoxazole-5-carbonyl]-amino}-piperidine-3-carboxylic acid dimethylamide]
0.554	COCC(C)(C)NC(=O)[C@@H]1CN(CC2CC2)CC[C@H]1NC(=O)c1cc(-c2ccc(F)cc2F)no1 (racemic) [Example 1.151, rac-(3R*,4R*)-1-Cyclopropylmethyl-4-{[3-(2,4-difluoro-phenyl)-isoxazole-5-carbonyl]-amino}-piperidine-3-carboxylic acid (2-methoxy-1,1-dimethyl-ethyl)-amide]
0.569	COCC(C)(C)NC(=O)[C@@H]1CN(C2CCCCC2)CC[C@H]1NC(=O)c1noc(-c2ccc(F)cc2F)n1 (racemic) [Example 1.152, rac-(3R*,4R*)-1-Cyclohexyl-4-{[5-(2,4-difluoro-phenyl)-[1,2,4]oxadiazole-3-carbonyl]-amino}-piperidine-3-carboxylic acid (2-methoxy-1,1-dimethyl-ethyl)-amide]
0.803	COCC(C)(C)NC(=O)[C@@H]1CN(CC2CC2)CC[C@H]1NC(=O)c1noc(-c2ccc(F)cc2F)n1 (racemic) [Example 1.153, rac-(3R*,4R*)-1-Cyclopropylmethyl-4-{[5-(2,4-difluoro-phenyl)-[1,2,4]oxadiazole-3-carbonyl]-amino}-piperidine-3-carboxylic acid (2-methoxy-1,1-dimethyl-ethyl)-amide]
0.953	O=C(N[C@@H]1CCN(CC2CC2)C[C@H]1C(=O)NC1(c2ccc(F)cn2)CC1)c1cc(-c2ccc(F)cc2F)no1 (racemic) [Example 1.163, rac-(3R*,4R*)-1-Cyclopropylmethyl-4-{[3-(2,4-difluoro-phenyl)-isoxazole-5-carbonyl]-amino}-piperidine-3-carboxylic acid [1-(5-fluoro-pyridin-2-yl)-cyclopropyl]-amide]
0.092	O=C(N[C@@H]1CCN(C2CCCCC2)C[C@H]1C(=O)NC1(c2ccccn2)CC1)c1cn(-c2ccc(F)cc2F)nn1 (racemic) [Example 1.165, rac-(3R*,4R*)-1-Cyclohexyl-4-{[1-(2,4-difluoro-phenyl)-1H-[1,2,3]triazole-4-carbonyl]-amino}-piperidine-3-carboxylic acid (1-pyridin-2-yl-cyclopropyl)-amide]
0.052	O=C(N[C@@H]1CCN(C2CCCC2)C[C@H]1C(=O)NC1(c2ccccn2)CC1)c1cn(-c2ccc(F)cc2F)nn1 (racemic) [Example 1.166, rac-(3R*,4R*)-1-Cyclopentyl-4-{[1-(2,4-difluoro-phenyl)-1H-[1,2,3]triazole-4-carbonyl]-amino}-piperidine-3-carboxylic acid (1-pyridin-2-yl-cyclopropyl)-amide]
0.134	O=C(N[C@@H]1CCN(CC2CC2)C[C@H]1C(=O)NC1(c2ccccn2)CC1)c1cn(-c2ccc(F)cc2F)nn1 (racemic) [Example 1.167, rac-(3R*,4R*)-1-Cyclopropylmethyl-4-{[1-(2,4-difluoro-phenyl)-1H-[1,2,3]triazole-4-carbonyl]-amino}-piperidine-3-carboxylic acid (1-pyridin-2-yl-cyclopropyl)-amide]
0.005	O=C(N[C@@H]1CCN(C2CCCCC2)C[C@H]1C(=O)NC1(c2ccccn2)CC1)c1cc(-c2c(F)cc(F)cc2F)on1 (racemic) [Example 1.169, rac-(3R*,4R*)-1-Cyclohexyl-4-{[5-(2,4,6-trifluoro-phenyl)-isoxazole-3-carbonyl]-amino}-piperidine-3-carboxylic acid (1-pyridin-2-yl-cyclopropyl)-amide]
0.016	O=C(N[C@@H]1CCN(CC2CC2)C[C@H]1C(=O)NC1(c2ccccn2)CC1)c1cc(-c2c(F)cc(F)cc2F)on1 (racemic) [Example 1.171, rac-(3R*,4R*)-1-Cyclopropylmethyl-4-{[5-(2,4,6-trifluoro-phenyl)-isoxazole-3-carbonyl]-amino}-piperidine-3-carboxylic acid (1-pyridin-2-yl-cyclopropyl)-amide]
0.11	O=C(N[C@@H]1CCN(C2CCCC2)C[C@H]1C(=O)NC1(c2ccccn2)CC1)c1cc(-c2ccc(F)cc2F)no1 (racemic) [Example 1.173, rac-(3R*,4R*)-1-Cyclopentyl-4-{[3-(2,4-difluoro-phenyl)-isoxazole-5-carbonyl]-amino}-piperidine-3-carboxylic acid (1-pyridin-2-yl-cyclopropyl)-amide]
0.036	O=C(N[C@@H]1CCN(CC2CC2)C[C@H]1C(=O)NC1(c2ccccn2)CC1)c1cc(-c2ccc(F)cc2F)no1 (racemic) [Example 1.174, rac-(3R*,4R*)-1-Cyclopropylmethyl-4-{[3-(2,4-difluoro-phenyl)-isoxazole-5-carbonyl]-amino}-piperidine-3-carboxylic acid (1-pyridin-2-yl-cyclopropyl)-amide]
0.006	O=C(N[C@@H]1CCN(C2CCCC2)C[C@H]1C(=O)NC1(c2ncccn2)CC1)c1cc(-c2c(F)cc(F)cc2F)on1 (racemic) [Example 1.176, rac-(3R*,4R*)-1-Cyclopentyl-4-{[5-(2,4,6-trifluoro-phenyl)-isoxazole-3-carbonyl]-amino}-piperidine-3-carboxylic acid (1-pyrimidin-2-yl-cyclopropyl)-amide]
0.005	O=C(N[C@@H]1CCN(CC2CC2)C[C@H]1C(=O)NC1(c2ncccn2)CC1)c1cc(-c2c(F)cc(F)cc2F)on1 (racemic) [Example 1.177, rac-(3R*,4R*)-1-Cyclopropylmethyl-4-{[5-(2,4,6-trifluoro-phenyl)-isoxazole-3-carbonyl]-amino}-piperidine-3-carboxylic acid (1-pyrimidin-2-yl-cyclopropyl)-amide]
0.079	CC(C)(C#N)NC(=O)[C@@H]1CN(C2CCCCC2)CC[C@H]1NC(=O)c1cc(-c2ccc(F)cc2F)on1 (racemic) [Example 1.183, rac-(3R*,4R*)-1-Cyclohexyl-4-{[5-(2,4-difluoro-phenyl)-isoxazole-3-carbonyl]-amino}-piperidine-3-carboxylic acid (cyano-dimethyl-methyl)-amide]
0.036	O=C(N[C@@H]1CCN(CC2CC2)C[C@H]1C(=O)NC1(c2ncccn2)CC1)c1cc(-c2ccc(Cl)cc2Cl)on1 (racemic) [Example 1.189, rac-(3R*,4R*)-1-Cyclopropylmethyl-4-{[5-(2,4-dichloro-phenyl)-isoxazole-3-carbonyl]-amino}-piperidine-3-carboxylic acid (1-pyrimidin-2-yl-cyclopropyl)-amide]
